Drawing on patent US6656932B2, “Benzo thiadiazine matrix metalloproteinase inhibitors” (Warner-Lambert Company, priority 2001, dated 2003), this text covers IC50 for 25 compounds.

Where a name gives a salt, the structure may show the parent alone.

Sequence of MMP-3CD (catalytic domain of stromelysin-1) (P08254 100-272 limits assumed): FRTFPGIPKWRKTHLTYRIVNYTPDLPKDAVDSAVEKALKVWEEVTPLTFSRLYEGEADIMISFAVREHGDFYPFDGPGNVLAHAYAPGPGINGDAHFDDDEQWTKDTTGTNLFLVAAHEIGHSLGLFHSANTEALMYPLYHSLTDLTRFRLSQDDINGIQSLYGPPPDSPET

The target of the first assay is MMP-13CD (catalytic domain of collagenase 3) (Homo sapiens, UniProt P45452). Description: Thiopeptolide hydrolysis assay, MMP-13CD. As to conditions: Table 1; thiopeptolide substrate, HEPES pH 7.0; read-out: MMP13 (CD) IC50. It is filed as biochemical. From the text: (§1) The invention compounds of Formula I have been evaluated in standard assays for their ability to inhibit the catalytic activity of various MMP enzymes.
(§2) Thiopeptolide substrates show virtually no decomposition or hydrolysis at or below neutral pH in the absence of a matrix metalloproteinase enzyme.
(§3) Several representative compounds have been evaluated for their ability to inhibit various matrix metalloproteinase enzymes.
As for `CN1C(=O)N(Cc2ccccc2)S(=O)(=O)c2cc(C(=O)NCc3ccccc3)ccc21` [Example 2, 2-Benzyl-4-methyl-1,1,3-trioxo-1,2,3,4-tetrahydro-1l^6-benzo[1,2,4]thiadiazine-7-carboxylic Acid Benzylamide], the half-maximal inhibitory concentration (IC50) was determined as 0.88 µM.
On the same count and under the same terms, to `CN1C(=O)N(Cc2ccccc2)S(=O)(=O)c2cc(C(=O)NCc3ccncc3)ccc21` [Example 3, 2-Benzyl-4-methyl-1,1,3-trioxo-1,2,3,4-tetrahydro-1l^6-benzo[1,2,4]thiadiazine-7-carboxylic acid (pyridin-4-ylmethyl)-amide] belongs 0.51 µM.

The same assay, now with this note: Table 2; thiopeptolide substrate, HEPES pH 7.0; read-out: IC50 (μM) Versus Certain MMPs: MMP13 (CD).
For the compound `CN1C(=O)N(Cc2ccccc2)S(=O)(=O)c2cc(C(=O)NCc3ccc4[nH]ccc4c3)ccc21` [Example 4, 2-Benzyl-4-methyl-1,1,3-trioxo-1,2,3,4-tetrahydro-1l^6-benzo[1,2,4]thiadiazine-7-carboxylic acid (1H-indol-5-ylmethyl)-amide], the concentration for half-maximal inhibition (IC50) is more than 30 µM.
Turning to `CN1C(=O)N(Cc2ccccc2)S(=O)(=O)c2cc(C(=O)NCc3ccc(CCS(=O)(=O)NC(C)(C)C)cc3)ccc21` [Example 6, 2-Benzyl-4-methyl-1,1,3-trioxo-1,2,3,4-tetrahydro-1l^6-benzo[1,2,4]thiadiazine-7-carboxylic acid 4-(2-tert-butylsulfamoyl-ethyl)-benzylamide], the IC50 is more than 30 µM.
Consider `CN1C(=O)N(Cc2ccccc2)S(=O)(=O)c2cc(C(=O)NCc3cc4ccccc4[nH]3)ccc21` [Example 7, 2-Benzyl-4-methyl-1,1,3-trioxo-1,2,3,4-tetrahydro-1l^6-benzo[1,2,4]thiadiazine-7-carboxylic acid (1H-indol-2-ylmethyl)-amide], for which the IC50 was more than 30 µM.
In the case of `CN1C(=O)N(Cc2ccccc2)S(=O)(=O)c2cc(C(=O)NCc3ccc(CCS(N)(=O)=O)cc3)ccc21` [Example 8, 2-Benzyl-4-methyl-1,1,3-trioxo-1,2,3,4-tetrahydro-1l^6-benzo[1,2,4]thiadiazine-7-carboxylic acid 4-(2-sulfamoyl-ethyl)-benzylamide], the IC50 was found to be 63 µM.
The same measure, in the same setting: then `CN1C(=O)N(Cc2ccc(C(=O)OC(C)(C)C)cc2)S(=O)(=O)c2cc(C(=O)NCc3ccccc3)ccc21` [Example 10, 4-(7-Benzylcarbamoyl-4-methyl-1,1,3-trioxo-3,4-dihydro-1H-1l^6-benzo[1,2,4]thiadiazin-2-ylmethyl)-benzoic Acid Tert-Butyl Ester], with more than 30 µM; and `COc1ccc(CNC(=O)c2ccc3c(c2)S(=O)(=O)N(Cc2ccc(C(=O)OC(C)(C)C)cc2)C(=O)N3C)cc1` [Example 12, 4-[7-(4-Methoxy-benzylcarbamoyl)-4-methyl-1,1,3-trioxo-3,4-dihydro-1H-1l^6-benzo[1,2,4]thiadiazin-2-ylmethyl]-Benzoic Acid Tert-Butyl Ester], with more than 30 µM.
Take `COc1ccc(CNC(=O)c2ccc3c(c2)S(=O)(=O)N(Cc2ccc(S(C)(=O)=O)cc2)C(=O)N3C)cc1` [Example 15, 2-(4-Methanesulfonyl-benzyl)-4-methyl-1,1,3-trioxo-1,2,3,4-tetrahydro-1l^6-benzo[1,2,4]thiadiazine-7-carboxylic acid 4-methoxy-benzylamide]: the IC50 was determined as 11 µM.
For the compound `COc1ccc(CNC(=O)c2ccc3c(c2)S(=O)(=O)N(Cc2ccc([N+](=O)[O-])cc2)C(=O)N3C)cc1` [Example 17, 4-Methyl-2-(4-nitro-benzyl)-1,1,3-trioxo-1,2,3,4-tetrahydro-1l^6-benzo[1,2,4]thiadiazine-7-carboxylic acid 4-methoxy-benzylamide], the half-maximal inhibitory concentration (IC50) was 0.615 µM.
The same measure, in the same setting: then `COc1ccc(CNC(=O)c2ccc3c(c2)S(=O)(=O)N(Cc2ccc(-c4ccccc4)cc2)C(=O)N3C)cc1` [Example 23, 2-Biphenyl-4-ylmethyl-4-methyl-1,1,3-trioxo-1,2,3,4-tetrahydro-1l^6-benzo[1,2,4]thiadiazine-7-carboxylic acid 4-methoxy-benzylamide], with more than 30 µM; and `COc1ccc(CNC(=O)c2ccc3c(c2)S(=O)(=O)N(Cc2ccc(C(=O)OCCN(C)C)cc2)C(=O)N3C)cc1` [Example 26, 4-[7-(4-Methoxy-benzylcarbamoyl)-4-methyl-1,1,3-trioxo-3,4-dihydro-1H-1l^6-benzo[1,2,4]thiadiazin-2-ylmethyl]-benzoic acid 2-dimethylamino-ethyl Ester Hydrochloride], with 2.2 µM; and `COc1ccc(CNC(=O)c2ccc3c(c2)S(=O)(=O)N(Cc2ccc(N)cc2)C(=O)N3C)cc1` [Example 33, 2-(4-Amino-benzyl)-4-methyl-1,1,3-trioxo-1,2,3,4-tetrahydro-1l^6-benzo[1,2,4]thiadiazine-7-carboxylic acid 4-methoxy-benzylamide], with 8.8 µM.
On the same count and under the same terms, to `CCC#CCN1C(=O)N(C)c2ccc(C(=O)NCc3ccc(OC)cc3)cc2S1(=O)=O` [Example 35, 4-methyl-1,1,3-trioxo-2-pent-2-ynyl-1,2,3,4-tetrahydro-1l^6-benzo[1,2,4]thiadiazine-7-carboxylic Acid 4-methoxy-benzylamide] belongs 1.4 µM.
As for `COc1ccc(CNC(=O)c2ccc3c(c2)S(=O)(=O)N(C(C)c2ccccc2)C(=O)N3C)cc1` (centres unmarked) [Example 36, 4-Methyl-1,1,3-trioxo-2-(1-phenyl-ethyl)-1,2,3,4-tetrahydro-1l^6-benzo[1,2,4]thiadiazine-7-carboxylic Acid 4-methoxy-benzylamide], the IC50 came to 6.3 µM.
Regarding `COc1ccc(CNC(=O)c2ccc3c(c2)S(=O)(=O)N(CCCCCC#N)C(=O)N3C)cc1` [Example 37, 2-(5-Cyano-pentyl)-4-methyl-1,1,3-trioxo-1,2,3,4.tetrahydro-1l^6-benzo[1,2,4]thiadiazine-7-carboxylic Acid 4-methoxy-benzylamide], the IC50 is 3.2 µM.
Regarding `C/C=C/CN1C(=O)N(C)c2ccc(C(=O)NCc3ccc(OC)cc3)cc2S1(=O)=O` [Example 38, 2-(E)-But-2-enyl-4-methyl-1,1,3-trioxo-1,2,3,4-tetrahydro-1l^6-benzo[1,2,4]thiadiazine-7-carboxylic Acid 4-methoxy-benzylamide], the IC50 turned out to be 2.2 µM.
`CC/C=C/CN1C(=O)N(C)c2ccc(C(=O)NCc3ccc(OC)cc3)cc2S1(=O)=O` [Example 39, 4-Methyl-1,1,3-trioxo-2-(E)-pent-2-enyl-1,2,3,4-tetrahydro-1l^6-benzo[1,2,4]thiadiazine-7-carboxylic Acid 4-methoxy-benzylamide]: the concentration for half-maximal inhibition (IC50) worked out at 1.5 µM.
`C=C(C)CN1C(=O)N(C)c2ccc(C(=O)NCc3ccc(OC)cc3)cc2S1(=O)=O` [Example 40, 4-Methyl-2-(2-methyl-allyl)-1,1,3-trioxo-1,2,3,4-tetrahydro-1l^6-benzo[1,2,4]thiadiazine-7-carboxylic Acid 4-methoxy-benzylamide]: the IC50 amounted to 1.7 µM.
As for `COc1ccc(CNC(=O)c2ccc3c(c2)S(=O)(=O)N(CC=C(C)C)C(=O)N3C)cc1` [Example 41, 4-Methyl-2-(3-methyl-but-2-enyl)-1,1,3-trioxo-1,2,3,4-tetrahydro-1l^6-benzo[1,2,4]thiadiazine-7-carboxylic Acid 4-methoxy-benzylamide], the 50% inhibitory concentration (IC50) was determined as 1.9 µM.
Take `COc1ccc(CNC(=O)c2ccc3c(c2)S(=O)(=O)N(CCS(=O)(=O)c2ccc(C)cc2)C(=O)N3C)cc1` [Example 42, 4-Methyl-1,1,3-trioxo-2-[2-(toluene-4-sulfonyl)-ethyl]-1,2,3,4-tetrahydro-1l^6-benzo[1,2,4]thiadiazine-7-carboxylic Acid 4-methoxy-benzylamide]: the IC50 is 100 µM.
On the same count and under the same terms, then `COc1ccc(CNC(=O)c2ccc3c(c2)S(=O)(=O)N(CCNC(=O)c2ccccc2)C(=O)N3C)cc1` [Example 44, 4-Methyl-1,1,3-trioxo-2-{2-[(1-phenyl-methanoyl)-amino]-ethyl}-1,2,3,4-tetrahydro-1l^6-benzo[1,2,4]thiadiazine-7-carboxylic Acid 4-methoxy-benzylamide], with 86 µM; and `COc1ccc(CNC(=O)c2ccc3c(c2)S(=O)(=O)N(Cc2ccc4nonc4c2)C(=O)N3C)cc1` [Example 45, 2-Benzo[1,2,5]oxadiazol-5-ylmethyl-4-methyl-1,1,3-trioxo-1,2,3,4-tetrahydro-1l^6-benzo[1,2,4]thiadiazine-7-carboxylic Acid 4-methoxy-benzylamide], with 0.7 µM; and `COC(=O)Nc1cc(CN2C(=O)N(C)c3ccc(C(=O)NCc4ccc(OC)cc4)cc3S2(=O)=O)on1` [Example 46, {5-[7-(4-Methoxy-benzylcarbamoyl)-4-methyl-1,1,3-trioxo-3,4-dihydro-1H-1l^6-benzo[1,2,4]thiadiazin-2-ylmethyl]-isoxazol-3-yl}-carbamic Acid Methyl Ester], with 1.7 µM.
As to `COc1ccc(CNC(=O)c2ccc3c(c2)S(=O)(=O)N(Cc2cscn2)C(=O)N3C)cc1` [Example 47, 4-Methyl-1,1,3-trioxo-2-thiazol-4-ylmethyl-1,2,3,4-tetrahydro-1l^6-benzo[1,2,4]thiadiazine-7-carboxylic Acid 4-methoxy-benzylamide], the IC50 worked out at 13 µM.

For the next assay, the target named is MMP-3CD (catalytic domain of stromelysin-1) (Homo sapiens, UniProt P08254). Briefly: Thiopeptolide hydrolysis assay, MMP-3CD. The assay is classed as biochemical. As to conditions: Table 2; thiopeptolide substrate, MES buffer pH 6.0; read-out: IC50 (μM) Versus Certain MMPs: MMP03 (CD). As to the method:
as §1, §2, §3
It should be appreciated that the assay buffer used with MMP-3CD was 50 mM of N-morpholinoethane sulfonate (“MES”) at pH 6.0 rather than the HEPES buffer at pH 7.0 described above.
As for `COc1ccc(CNC(=O)c2ccc3c(c2)S(=O)(=O)N(Cc2ccc([N+](=O)[O-])cc2)C(=O)N3C)cc1` [Example 17, 4-Methyl-2-(4-nitro-benzyl)-1,1,3-trioxo-1,2,3,4-tetrahydro-1l^6-benzo[1,2,4]thiadiazine-7-carboxylic acid 4-methoxy-benzylamide], the IC50 came out at 16 µM.
